Like-named read-outs stand apart in the source and are kept apart here.
Tests used:
Septoria tritici = test: Test G: wheat leaf blotch, preventive spray on wheat seedlings, visual disease rating; settings: for Test G disease control rating / Test G rating (% disease control): wheat leaf blotch, 100 = 100% disease control; for Test G disease control rating: sprayed the day before inoculation, 0 = no disease control relative to controls; for pest or weed control at 200 µg/mL: Zymoseptoria tritici, in Triticum aestivum, 504 h
Description: (§1) General protocol for preparing test suspensions for Tests A-J: the test compounds were first dissolved in acetone in an amount equal to 3% of the final volume and then suspended at the desired concentration (in ppm) in acetone and purified water (50/50 mix by volume) containing 250 ppm of the surfactant Trem® 014 (polyhydric alcohol esters). The resulting test suspensions were then used in Tests A-J. Spraying a 200 ppm test suspension to the point of run-off on the test plants was the equivalent of a rate of 500 g/ha. Unless otherwise indicated, the rating values indicate a 200 ppm test suspension was used. (An asterisk “*” next to the rating value indicates a 40 ppm test suspension was used.)
The test suspension was sprayed to the point of run-off on wheat seedlings. The following day the seedlings were inoculated with a spore suspension of Septoria tritici (the causal agent of wheat leaf blotch) and incubated in saturated atmosphere at 24° C. for 48 h. and then the seedlings were moved to a growth chamber at 20° C. for 19 additional days, after which time visual disease ratings were made.

[1] = test system: Puccinia recondita f. sp. tritici; test: Test H: wheat leaf rust, curative spray on inoculated wheat seedlings, visual disease rating; settings: for Test H disease control rating / Test H rating (% disease control): wheat leaf rust, 100 = 100% disease control; for Test H disease control rating: sprayed after inoculation, 0 = no disease control relative to controls; for pest or weed control at 200 µg/mL: 144 h
Botrytis cinerea = test: Test B: tomato Botrytis, preventive spray on tomato seedlings, visual disease rating; settings: for Test B disease control rating / Test B rating (% disease control): tomato Botrytis, 100 = 100% disease control; for Test B disease control rating: 0 = no disease control relative to controls; for pest or weed control at 200 µg/mL: Botrytis cinerea, in Solanum lycopersicum, 120 h
Alternaria solani = test: Test C: tomato early blight, preventive spray on tomato seedlings, visual disease rating; settings: for Test C disease control rating / Test C rating (% disease control): tomato early blight, 100 = 100% disease control; for Test C disease control rating: 0 = no disease control relative to controls; for pest or weed control at 200 µg/mL: Alternaria solani, in Solanum lycopersicum, 168 h
[2] = test system: Erysiphe graminis f sp. tritici; test: Test J: wheat powdery mildew, preventive spray on wheat seedlings, visual disease rating; settings: for Test J disease control rating / Test J rating (% disease control): wheat powdery mildew, 100 = 100% disease control; for Test J disease control rating: sprayed the day before inoculation, 0 = no disease control relative to controls; for pest or weed control at 200 µg/mL: Blumeria graminis, in Triticum aestivum, 192 h
Septoria nodorum = test: Test F: Septoria glume blotch, preventive spray on wheat seedlings, visual disease rating; settings: for Test F disease control rating / Test F rating (% disease control): 100 = 100% disease control; for Test F disease control rating: 0 = no disease control relative to controls; for pest or weed control at 200 µg/mL: Parastagonospora nodorum, in Triticum aestivum, 192 h
Description: as §1
The test suspension was sprayed to the point of run-off on wheat seedlings. The following day the seedlings were inoculated with a spore suspension of Septoria nodorum (the causal agent of Septoria glume blotch) and incubated in a saturated atmosphere at 24° C. for 48 h, and then moved to a growth chamber at 20° C. for 6 days, after which time visual disease ratings were made.

[3] = test system: Puccinia recondita f. sp. tritici; test: Test I: wheat leaf rust, preventive spray on wheat seedlings, visual disease rating; settings: for Test I disease control rating / Test I rating (% disease control): wheat leaf rust, 100 = 100% disease control; for Test I disease control rating: sprayed the day before inoculation, 0 = no disease control relative to controls; for pest or weed control at 200 µg/mL: 192 h
[4] = preventive spray, 0 = no control
[5] = Septoria glume blotch on wheat, preventive spray, 0 = no control
[6] = read-out: Test G disease control rating
[7] = read-out: Test H disease control rating
[8] = read-out: Test B disease control rating
[9] = read-out: Test C disease control rating
[10] = read-out: Test J disease control rating
[11] = read-out: Test F disease control rating
[12] = read-out: Test I disease control rating
[13] = 0 = no control relative to controls
[14] = curative, 0 = no control relative to controls
[15] = Septoria glume blotch, 0 = no control relative to controls
[16] = preventive, 0 = no control relative to controls

SMILES | Test G rating (% disease control) (Septoria tritici; [4]) [%] | Test H rating (% disease control) ([1]; curative spray, 0 = no control) [%] | Test B rating (% disease control) (Botrytis cinerea; [4]) [%] | Test C rating (% disease control) (Alternaria solani; [4]) [%] | Test J rating (% disease control) [2, 4] [%] | Test F rating (% disease control) (Septoria nodorum; [5]) [%] | Test I rating (% disease control) [3, 4] [%] | Test G rating (% disease control) (Septoria tritici; [13]) [%] | Test H rating (% disease control) [1, 14] [%] | Test B rating (% disease control) (Botrytis cinerea; [13]) [%] | Test C rating (% disease control) (Alternaria solani; [13]) [%] | Test J rating (% disease control) [2, 13] [%] | Test F rating (% disease control) (Septoria nodorum; [15]) [%] | Test I rating (% disease control) [3, 16] [%] | also measured
Cc1nn(C)c(Oc2c(F)cc(C#N)cc2F)c1-c1cc(F)ccc1F [compound 329] | – | – | – | – | – | – | – | – | – | – | – | – | – | – | Test G disease control rating (Septoria tritici): 100%; Test H disease control rating [1]: 0%; Test B disease control rating (Botrytis cinerea): 100%; Test C disease control rating (Alternaria solani): 99%; Test J disease control rating [2]: 100%; Test F disease control rating (Septoria nodorum; Septoria glume blotch on wheat): 69%; Test I disease control rating [3]: 100%
Cc1nn(C)c(Oc2ccc(C#N)cc2Cl)c1-c1ccc(F)cc1Cl [Compound 139, 3-chloro-4-[[4-(2-chloro-4-fluorophenyl)-1,3-dimethyl-1H-pyrazol-5-yl]oxy]benzonitrile] | – | – | – | – | – | – | – | – | – | – | – | – | – | – | pest or weed control at 200 µg/mL (Septoria tritici; read-out: Test G rating (% disease control)): 100%; pest or weed control at 200 µg/mL ([1]; read-out: Test H rating (% disease control)): 69%; pest or weed control at 200 µg/mL (Botrytis cinerea; read-out: Test B rating (% disease control)): 100%; pest or weed control at 200 µg/mL (Alternaria solani; read-out: Test C rating (% disease control)): 86%; pest or weed control at 200 µg/mL ([2]; read-out: Test J rating (% disease control)): 100%; pest or weed control at 200 µg/mL (Septoria nodorum; read-out: Test F rating (% disease control)): 100%; pest or weed control at 200 µg/mL ([3]; read-out: Test I rating (% disease control)): 99%
COc1cc(F)c(-c2c(C)nn(C)c2Nc2cc(Cl)c(OC)cc2OC)c(F)c1 [compound 81] | 0 | 0 | 97 | 0 | 0 | 0 | 27 | – | – | – | – | – | – | – | –
Cc1nn(C)c(Nc2c(Cl)cc(F)cc2Br)c1-c1ccc(F)cc1F [compound 348] | – | – | – | – | – | – | – | – | – | – | – | – | – | – | Test G disease control rating (Septoria tritici): 100%; Test H disease control rating [1]: 19%; Test B disease control rating (Botrytis cinerea): 100%; Test C disease control rating (Alternaria solani): 80%; Test J disease control rating [2]: 100%; Test F disease control rating (Septoria nodorum; Septoria glume blotch on wheat): 94%; Test I disease control rating [3]: 100%
COc1cc(F)c(-c2c(C)nn(C)c2Oc2c(F)cc(N)cc2F)c(F)c1 [compound 77] | 95 | 6 | 99 | 0 | 0 | 0 | 97 | – | – | – | – | – | – | – | –
Cc1nn(C)c(Oc2ccc(C#N)cc2Cl)c1-c1c(F)cccc1F [Compound 358, 3-chloro-4-[[4-(2,6-difluorophenyl)-1,3-dimethyl-1H-pyrazol-5-yl]oxy]benzonitrile] | – | – | – | – | – | – | – | – | – | – | – | – | – | – | pest or weed control at 200 µg/mL (Septoria tritici; [6]): 100%; pest or weed control at 200 µg/mL [1, 7]: 0%; pest or weed control at 200 µg/mL (Botrytis cinerea; [8]): 99%; pest or weed control at 200 µg/mL (Alternaria solani; [9]): 0%; pest or weed control at 200 µg/mL [2, 10]: 97%; pest or weed control at 200 µg/mL (Septoria nodorum; [11]): 0%; pest or weed control at 200 µg/mL [3, 12]: 97%
COc1ccc(F)c(-c2c(C)nn(C)c2Oc2c(F)cc(C#N)cc2F)c1 [compound 278] | – | – | – | – | – | – | – | 99 | 0 | 99 | 0 | 100 | 0 | 82 | –
COc1ccc(Nc2c(-c3c(F)cc(F)cc3F)c(C)nn2C)cn1 [compound 94] | 98 | 0 | 99 | 70 | 0 | 29 | 9 | – | – | – | – | – | – | – | –
COc1cc(F)c(-c2c(C)nn(C)c2Nc2ccc(Cl)c(F)c2)c(F)c1 [compound 49] | 99 | 0 | 100 | 17 | 79 | 35 | 89 | – | – | – | – | – | – | – | –
Cc1nn(C)c(Nc2c(F)cc(Cl)cc2F)c1-c1ccc(F)cc1F [Compound 357, N-(4-chloro-2,6-difluorophenyl)-4-(2,4-difluorophenyl)-1,3-dimethyl-1H-pyrazol-5-amine] | – | – | – | – | – | – | – | – | – | – | – | – | – | – | pest or weed control at 200 µg/mL (Septoria tritici; [6]): 100%; pest or weed control at 200 µg/mL [1, 7]: 0%; pest or weed control at 200 µg/mL (Botrytis cinerea; [8]): 100%; pest or weed control at 200 µg/mL (Alternaria solani; [9]): 86%; pest or weed control at 200 µg/mL [2, 10]: 100%; pest or weed control at 200 µg/mL (Septoria nodorum; [11]): 87%; pest or weed control at 200 µg/mL [3, 12]: 99%
CCn1nc(C)c(-c2c(F)cccc2F)c1Nc1cc(OC)cc(OC)c1 [compound 63] | 0 | 0 | 0 | 0 | 0 | 0 | 0 | – | – | – | – | – | – | – | –
COc1cc(F)c(Nc2c(-c3c(F)cc(C#N)cc3F)c(C)nn2C)c(F)c1 [compound 134] | 99 | 0 | 99 | 0 | 0 | 0 | 41 | – | – | – | – | – | – | – | –
Cc1nn(C)c(Nc2cc(C#N)ccc2Cl)c1-c1ccc(F)cc1Cl [compound 235] | – | – | – | – | – | – | – | 17 | 0 | 84 | 0 | 79 | 0 | 0 | –
Cc1nn(C)c(Nc2cccc(F)c2F)c1-c1c(F)cccc1F [compound 198] | – | – | – | – | – | – | – | 100 | 0 | 97 | 68 | 97 | 0 | 94 | –
COc1cc(F)c(-c2c(C)nn(C)c2Oc2c(F)cc(C#N)cc2F)c(F)c1 [compound 140] | 99 | 0 | 99 | 94 | 97 | 87 | 96 | – | – | – | – | – | – | – | –
COc1cc(F)ccc1Nc1c(-c2c(F)cccc2F)c(C)nn1C [compound 199] | – | – | – | – | – | – | – | 99 | 0 | 99 | 86 | 98 | 0 | 68 | –
Cc1nn(C)c(Nc2c(F)cc(F)cc2F)c1-c1ccccc1F [compound 182] | – | – | – | – | – | – | – | 100 | 0 | 97 | 99 | 99 | 87 | 95 | –
Cc1nn(C)c(Nc2ccc(C#N)cc2Cl)c1-c1ccc(F)cc1Cl [compound 162] | – | – | – | – | – | – | – | 99 | 8 | 99 | 0 | 94 | 0 | 98 | –
COc1cc(F)c(Nc2c(-c3c(F)cc(F)cc3F)c(C)nn2C)c(F)c1 [compound 78] | 98 | 0 | 99 | 82 | 91 | 0 | 89 | – | – | – | – | – | – | – | –
Cc1nn(C)c(Nc2ccc(F)cc2F)c1-c1c(F)cc(O)cc1F [compound 103] | 95 | 0 | 100 | 64 | 0 | 0 | 91 | – | – | – | – | – | – | – | –
